This passage reports IC50 and half-life results from patent publication US8372845B2, “Pyrazine derivatives as enac blockers” (Novartis AG, priority 2010, dated 2013).

For series [1], the target named is T1, epithelial sodium channel (ENaC) (Homo sapiens, UniProt P37088+P51168+P51170).
T1 construct: host or cells: primary Human Bronchial Epithelial cells (HBECs), differentiated at air-liquid interface
T1 sequence (P37088 1-669): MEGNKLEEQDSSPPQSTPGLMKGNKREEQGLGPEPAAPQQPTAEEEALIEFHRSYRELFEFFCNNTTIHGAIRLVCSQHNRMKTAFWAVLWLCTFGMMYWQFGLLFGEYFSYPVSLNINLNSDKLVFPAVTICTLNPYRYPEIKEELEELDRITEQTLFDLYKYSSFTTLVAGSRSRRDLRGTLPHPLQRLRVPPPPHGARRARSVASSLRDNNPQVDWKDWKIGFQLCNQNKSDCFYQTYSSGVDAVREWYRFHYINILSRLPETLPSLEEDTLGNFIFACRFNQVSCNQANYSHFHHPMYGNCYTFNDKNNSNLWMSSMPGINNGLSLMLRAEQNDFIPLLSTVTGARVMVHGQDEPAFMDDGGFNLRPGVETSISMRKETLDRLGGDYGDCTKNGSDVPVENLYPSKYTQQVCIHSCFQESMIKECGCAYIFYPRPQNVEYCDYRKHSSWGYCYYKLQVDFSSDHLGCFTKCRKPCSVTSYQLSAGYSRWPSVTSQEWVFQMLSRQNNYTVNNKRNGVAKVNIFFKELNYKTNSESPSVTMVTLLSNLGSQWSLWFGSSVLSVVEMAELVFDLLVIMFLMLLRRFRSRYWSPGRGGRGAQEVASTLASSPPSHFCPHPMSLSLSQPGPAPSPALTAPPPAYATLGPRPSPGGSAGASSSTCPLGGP
T1 sequence (P51168 1-640): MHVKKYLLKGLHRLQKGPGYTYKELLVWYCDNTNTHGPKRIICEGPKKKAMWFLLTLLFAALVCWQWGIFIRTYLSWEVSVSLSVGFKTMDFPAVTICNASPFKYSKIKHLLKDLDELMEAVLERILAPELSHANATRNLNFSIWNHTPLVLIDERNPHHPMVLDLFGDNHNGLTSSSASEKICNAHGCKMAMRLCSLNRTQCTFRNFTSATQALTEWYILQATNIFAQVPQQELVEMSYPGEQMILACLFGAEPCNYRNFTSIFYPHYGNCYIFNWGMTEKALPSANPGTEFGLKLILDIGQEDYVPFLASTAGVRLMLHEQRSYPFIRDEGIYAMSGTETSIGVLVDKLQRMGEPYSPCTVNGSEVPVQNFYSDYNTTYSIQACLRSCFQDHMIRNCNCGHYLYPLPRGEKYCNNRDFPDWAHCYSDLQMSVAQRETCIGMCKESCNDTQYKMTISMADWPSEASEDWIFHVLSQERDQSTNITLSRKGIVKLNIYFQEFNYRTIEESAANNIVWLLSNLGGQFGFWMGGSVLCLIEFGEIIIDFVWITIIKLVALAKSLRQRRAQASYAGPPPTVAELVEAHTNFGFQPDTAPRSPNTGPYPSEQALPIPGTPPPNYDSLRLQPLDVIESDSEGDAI
T1 sequence (P51170 1-649): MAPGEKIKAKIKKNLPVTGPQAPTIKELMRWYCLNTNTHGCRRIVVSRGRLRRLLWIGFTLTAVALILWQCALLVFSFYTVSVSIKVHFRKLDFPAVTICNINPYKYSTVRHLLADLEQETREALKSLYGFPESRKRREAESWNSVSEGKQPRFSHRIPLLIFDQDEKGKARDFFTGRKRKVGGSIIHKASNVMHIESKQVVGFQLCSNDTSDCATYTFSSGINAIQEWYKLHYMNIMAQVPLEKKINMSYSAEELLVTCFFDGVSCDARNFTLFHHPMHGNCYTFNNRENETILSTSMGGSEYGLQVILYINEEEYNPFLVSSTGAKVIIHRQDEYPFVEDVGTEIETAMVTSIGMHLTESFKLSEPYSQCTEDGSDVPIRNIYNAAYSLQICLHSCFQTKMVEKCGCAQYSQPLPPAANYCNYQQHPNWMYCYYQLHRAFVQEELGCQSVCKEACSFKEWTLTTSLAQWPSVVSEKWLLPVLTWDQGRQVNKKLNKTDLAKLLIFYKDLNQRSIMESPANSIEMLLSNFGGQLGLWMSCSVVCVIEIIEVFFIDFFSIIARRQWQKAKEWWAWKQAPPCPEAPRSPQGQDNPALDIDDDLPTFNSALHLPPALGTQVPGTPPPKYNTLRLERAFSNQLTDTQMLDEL
Briefly: Short circuit current (ISC) measurements in Human Bronchial Epithelial cells (HBEC-ENaC). Particulars: inhibition of amiloride-sensitive ISC, HBECs at air-liquid interface, Ussing chamber, apical addition. The series is classed as cell-based. The method, then:
Human Bronchial Epithelial cells (HBECs) (Cambrex) were cultured under air-liquid interface conditions to provide a well differentiated mucociliary phenotype.
Medium was changed every 48 hours until cells were 90% confluent. […] Cells were maintained submerged for the first 7 days in culture, after which time they were exposed to an apical air interface for the remainder of the culture period. At this time, media was changed to DMEM:F12 media containing 2% v/v Ultroser G for the remainder of culture. Amphotericin B was removed from all media 3 feeds prior to use in the Ussing Chambers. Cells were used between days 7 and 21 after establishment of the apical-air interface. At all stages of culture, cells were maintained at 37° C. in 5% CO2 in an air incubator.
Short Circuit Current (ISC) Measurements
Snapwell inserts were mounted in Vertical Diffusion Chambers (Costar) and were bathed with continuously gassed Ringer solution (5% CO2 in O2; pH 7.4) maintained at 37° C. containing (in mM): 120 NaCl, 25 NaHCO3, 3.3 KH2PO4, 0.8 K2HPO4, 1.2 CaCl2, 1.2 MgCl2, and 10 glucose. The solution osmolarity was between 280 and 300 mOsmol/kg H2O for all physiological salt solutions used. Cells were voltage clamped to 0 mV (model EVC4000; WPI). RT was measured by applying a 1- or 2-mV pulse at 30-s intervals and calculating RT by Ohm's law. Data were recorded using a PowerLab workstation (ADInstruments).
Test compounds were prepared as a 10 mM stock solution in DMSO (95%). Serial 3-fold dilutions were freshly prepared in an appropriate vehicle (distilled H2O or Ringers solution). The initial concentration was added to the apical chamber as a 1000× concentrate in 5 μL, resulting in a final 1× concentration the 5 mL volume of the Ussing chamber. Subsequent additions of compound were added in a 3.3 μL volume of the 1000× serially diluted stock solution. At the completion of the concentration-response experiment, amiloride (10 μM) was added into the apical chamber to enable the total amiloride-sensitive current to be measured. An amiloride control IC50 was established at the start of each experiment.
Results are expressed as the mean % inhibition of the amiloride-sensitive ISC. […] Cell inserts were typically run in duplicate and the IC50 calculated on the mean % inhibition data.

The nature of series [2]: Stability in human plasma. The series is classed as in vitro ADME. Particulars: pooled human plasma (lithium heparin), 1 μM compound, 37° C., 1 hour incubation. The method, then: The stability of the compounds of the invention in human plasma may be measured as follows:
Stability in Human Plasma
Blood was taken from healthy volunteers in lithium heparin tubes and plasma was prepared by centrifugal separation of blood cells at 1500 g. Plasma from at least 3 individuals was pooled and used for compound stability determination.
Compounds were prepared in 100% DMSO at a concentration of 10 mM and serially diluted to a concentration of 100 μM. Incubations were performed at a final concentration of 1 μM and were initiated by addition of 3 μl of 100 μM compound stock solution into 297 μl plasma, pre-warmed in a water bath to 37° C., followed by brief vortex mixing. 50 μl aliquots of plasma were removed at 4 timepoints over a 1 hour incubation period and quenched immediately by protein precipitation achieved by addition of the aliquot of plasma to a pre-prepared 96 well plate containing 150 μl of acetonitrile containing an appropriate internal standard. Acetonitrile quenched samples were vortex mixed followed by centrifugation for 20 minutes at 1500 g to remove the precipitated proteins. Initial compound levels (at time=0 minutes) was established by spiking compound into pre-quenched plasma at the same concentration as used in the incubation. The supernatant was then removed, diluted 1:1 with water and analysed for compound remaining by liquid chromatography-tandem mass spectrometry (Waters Acquity HPLC, Applied Biosystems API4000). The plasma elimination rate constant of the compound was calculated by fitting the peak area ratio of compound:internal standard to an exponential decay function and the half life calculated by division of the natural log of 2 by the elimination rate constant (Microsoft Excel).

Counter-ions that a name gives are not always drawn.

`Nc1nc(N)c(C(=O)/N=C2\NCC3(CCN(C(=O)c4cccc(S(=O)(=O)NCCC(=O)OCC(=O)N5CCCC5C(F)(F)F)c4)CC3)N2)nc1Cl` (stereo not shown) [Example 4.0, 3-(3-{2-[(E)-3,5-Diamino-6-chloro-pyrazine-2-carbonylimino]-1,3,8-triaza-spiro[4.5]decane-8-carbonyl}-benzenesulfonylamino)-propionic acid 2-oxo-2-(2-trifluoromethyl-pyrrolidin-1-yl)-ethyl ester] came in with a half-maximal inhibitory concentration (IC50) in series [1] of 0.101 µM. This compound registered a half-life at 1 μM in series [2] of 28 min.

`Nc1nc(N)c(C(=O)/N=C2\NCC3(CCN(C(=O)CCc4ccc(OCC(=O)OCC(=O)N5CCOCC5)cc4)CC3)N2)nc1Cl` [Example 4.2, [4-(3-{2-[(E)-3,5-Diamino-6-chloro-pyrazine-2-carbonylimino]-1,3,8-triaza-spiro[4.5]dec-8-yl}-3-oxo-propyl)-phenoxy]-acetic acid 2-morpholin-4-yl-2-oxo-ethyl ester]: the IC50 in series [1] was determined as 0.45 µM. Besides, the half-life at 1 μM in series [2] was 4 min.

In series [1], `CCCN(CCC)C(=O)COC(=O)CCNS(=O)(=O)c1cccc(C(=O)N2CCC3(CC2)CN/C(=N\C(=O)c2nc(Cl)c(N)nc2N)N3)c1` [Example 1.0, 3-(3-{2-[(E)-3,5-Diamino-6-chloro-pyrazine-2-carbonylimino]-1,3,8-triaza-spiro[4.5]decane-8-carbonyl}-benzenesulfonylamino)-propionic acid dipropylcarbamoylmethyl ester succinate salt] came in with an IC50 of 0.017 µM. The compound also came in with a half-life at 1 μM in series [2] of 2 min.

`CC(C)(C)OC(=O)COC(=O)COc1ccc(CCC(=O)N2CCC3(CC2)CN/C(=N\C(=O)c2nc(Cl)c(N)nc2N)N3)cc1` [Example 2.1, [4-(3-{2-[(E)-3,5-Diamino-6-chloro-pyrazine-2-carbonylimino]-1,3,8-triaza-spiro[4.5]dec-8-yl}-3-oxo-propyl)-phenoxy]-acetic acid tert-butoxycarbonylmethyl ester]: the half-maximal inhibitory concentration (IC50) in series [1] turned out to be 0.03 µM. The half-life at 1 μM in series [2] amounted to 5 min.

As to `CCCN(CCC)C(=O)COC(=O)COc1ccc(CCC(=O)N2CCC3(CC2)CN/C(=N\C(=O)c2nc(Cl)c(N)nc2N)N3)cc1` [Example 2.0, [4-(3-{2-[(E)-3,5-Diamino-6-chloro-pyrazine-2-carbonylimino]-1,3,8-triaza-spiro[4.5]dec-8-yl}-3-oxo-propyl)-phenoxy]-acetic acid dipropylcarbamoylmethyl ester], the IC50 in series [1] amounted to 0.032 µM. Besides, in series [2], the half-life at 1 μM amounted to 1 min.

Compound `CCCN(CCC)C(=O)COC(=O)C1(CNS(=O)(=O)c2cccc(C(=O)N3CCC4(CC3)CN/C(=N\C(=O)c3nc(Cl)c(N)nc3N)N4)c2)CCC1` [Example 5.0, 1-[(3-{2-[(E)-3,5-Diamino-6-chloro-pyrazine-2-carbonylimino]-1,3,8-triaza-spiro[4.5]decane-8-carbonyl}-benzenesulfonylamino)-methyl]-cyclobutanecarboxylic acid dipropylcarbamoylmethyl ester] came in with an IC50 in series [1] of 0.012 µM. Moreover, in series [2], the half-life at 1 μM amounted to 5 min.

Compound `CCCN(CCC)C(=O)COC(=O)COc1ccc(CCC(=O)N2CCC3(CC2)CN/C(=N\C(=O)c2nc(Cl)c(N)nc2N)N3)cc1Cl` [Example 3.0, [2-Chloro-4-(3-{2-[(E)-3,5-diamino-6-chloro-pyrazine-2-carbonylimino]-1,3,8-triaza-spiro[4.5]dec-8-yl}-3-oxo-propyl)-phenoxy]-acetic acid dipropylcarbamoylmethyl ester] returned an IC50 in series [1] of 0.011 µM. The half-life at 1 μM in series [2] is 2 min.

The compound `Nc1nc(N)c(C(=O)/N=C2\NCC3(CCN(C(=O)c4cccc(S(=O)(=O)NCC5(C(=O)OCC(=O)N6CCCC6C(F)(F)F)CCC5)c4)CC3)N2)nc1Cl` (stereo not shown) [Example 5.2, 1-[(3-{2-[(E)-3,5-Diamino-6-chloro-pyrazine-2-carbonylimino]-1,3,8-triaza-spiro[4.5]decane-8-carbonyl}-benzenesulfonylamino)-methyl]-cyclobutanecarboxylic acid 2-oxo-2-(2-trifluoromethyl-pyrrolidin-1-yl)-ethyl ester] came in with a half-maximal inhibitory concentration (IC50) in series [1] of 0.019 µM. For the same compound, in series [2], the half-life at 1 μM was 39 min.
